In article PMC5841303, “In silico screening for human norovirus antivirals reveals a novel non-nucleoside inhibitor of the viral polymerase” (Scientific Reports, 2018):
Counter-ions that a name gives are not always drawn. Like-named read-outs stand apart in the source and are kept apart here.

Tests used:
norovirus RdRp [1] = assay: Counter-screen gel-shift RdRp assay (primed elongation of PE44-NoV template); format: biochemical, human norovirus; settings: 10 µM
[2] = biological target: human norovirus Sydney 2012 RdRp (Norovirus GII.4 (Norwalk virus, human norovirus), UniProt K4L8Z7); assay: Fluorescent de novo RdRp activity assay (PicoGreen, poly(C) template); format: biochemical; settings: for inhibition at 100 µM: read-out: inhibition of human norovirus RdRp activity, 100 µM
Method: The 62 compounds identified in silico were screened for inhibition of norovirus RdRp activity using an in vitro fluorescent, de novo RdRp assay. Compounds were tested at fixed concentrations of 10 µM and 100 µM, and compared to mock treated samples containing the vehicle only (0.5% DMSO [vol/vol]) (Fig. 4A,B). […] For certain compounds, significant insolubility was observed, coupled with either inherent fluorescence quenching (positive y-axis values on Fig. 4A,B) or enhancement of the fluorescence signal (negative y-axis values).
The newly synthesised compounds, including the re-prepared hit 13 and some synthesis intermediates (Table 1), were initially evaluated on norovirus Sydney 2012 RdRp activity in vitro using a quantitative fluorescent assay. Compounds were tested at a fixed concentration of 10 μM and compared to the relative activity of mock treated samples.
Recombinant calicivirus RdRps (GenBank accession numbers) norovirus GII.Pe/GII.4 Sydney 2012 (KT239579), MNV GV CW1 (DQ285629), RHDV Czech V351 (KF594473.1), and SaV GI.1 Mc114 (AY237422) were expressed and purified as described previously[60],[61]. RdRp resistance mutants were generated using the QuikChange site-directed mutagenesis kit (Agilent Technologies, Santa Clara, CA, USA) and confirmed by Sanger sequencing.
(§1) Fluorescent RdRp activity assays were carried out as previously described[14],[62]. Briefly, RdRp activity was quantified by monitoring the formation of double-stranded RNA (dsRNA) from a single stranded homopolymeric template, poly(C) (Sigma Aldrich, St Louis, MO, USA), using the fluorescent dye PicoGreen (Life Technologies, Carlsbad, CA, USA). RdRp assays were performed in 384-well plates, and each reaction mixture contained 400 ng enzyme, 45 µM GTP, 10 ng/µL poly(C) RNA, 2.5 mM MnCl2, 5 mM dithiothreitol, (DTT), 0.01% bovine serum albumin (BSA), and 0.005% Tween 20 in 20 mM Tris-HCl, pH 7.5, with a final reaction volume of 25 µL. The previous published norovirus NNI NIC02 was used as a positive control. RdRps were incubated for 10 mins at 30 °C in the presence of the test compounds or the compound vehicle DMSO (0.5% vol/vol) before addition into the reaction mixture, which was then allowed to run 15 min at 30 °C then terminated with 10 mM EDTA, followed by PicoGreen staining and dsRNA quantitation. GraphPad Prism V6.05 (La Jolla, CA, USA) was used to plot the IC50 values. In cases where fluorescent enhancement was recorded for a compound instead of inhibition, a secondary gel-based polymerase activity assay was used as a counter-screen as described below, to exclude the possibility of RdRp activity enhancement (Supplementary Fig. S1). Primed elongation activity was examined in a gel-based assay as previously described[16],[63] using the RNA template (PE44-NoV, Fig. 4D). Gels were imaged using BioRad (Hercules, CA, U.SA) Geldoc Universal Hood II, running BioRad Image Lab software, V4.1, build 16. Antagonism was calculated using Compusyn software V1.0[59]. 54 and PPNDS (4:1 ratio) were tested alone and together against norovirus Sydney 2012 RdRp.

[3] = Observed compound solubility; format: physicochemical; settings: assay conditions / 100% DMSO
Method: Therefore, they were counter-screened at 100 µM in a secondary gel-based assay (Supplementary Fig. S1).
To confirm RdRp inhibition and to exclude any potential false positives from the first fluorescence RdRp assay, the eight selected compounds (Fig. 4C) were then assessed using a gel-shift enzyme activity assay.
Dose-dependent inhibitory response curves were used to establish IC50 values for the five test compounds (Table 2). […] Therefore, 42b was too insoluble to attain a reliable confidence interval in the dose-response experiments and was not examined further. However, from the other four compounds, hit 11 and its phenyl derivative 54 gave the lowest IC50 values, 3–5 fold improved compared with 13 and its derivative 42a, confirming increased RdRp inhibitory activity associated with this scaffold.

norovirus RdRp [4] = assay: Counter-screen gel-shift RdRp assay (primed elongation of PE44-NoV template); format: biochemical, human norovirus; settings: for RdRp activity enhancement in gel-based counter-screen: 100 µM; for inhibition of primed elongation activity (gel-shift): fixed concentration of 100 µM
Method: In this assay, a 32 nucleotide RNA template (PE44-NoV) is extended to 44 nucleotides in the presence of an active RdRp[16]. […] Inhibition of primed elongation of the PE44-NoV template was examined at a fixed concentration of 100 µM (Fig. 4D). In the absence of inhibition (0.5% DMSO vehicle only) the RNA template was extended to 44 nucleotides (Fig. 4D), evidenced by an upward gel shift and the appearance of the second, higher band.
as §1

human norovirus RdRp = settings: cited from earlier work
human norovirus replicon = test system: human norovirus replicon; parameters: method as in PMID 26392512; settings: cell culture; read-out: EC50 against the human norovirus replicon; cited from earlier work
human norovirus = test system: human norovirus; parameters: method as in PMID 27210811; settings: read-out: EC50 against human norovirus in the B-cell culture system; cited from earlier work
MNV = MNV plaque reduction assay in cell culture; format: cell-based, murine norovirus
Method: As mentioned above, the only robust cellular assay available for the evaluation of potential norovirus inhibitors is the closely related MNV assay. […] Consequently, 54 was further assessed to determine the IC50 value against MNV RdRp activity using an in vitro fluorescent assay. […] 54 was then assessed for cytotoxicity against RAW264.7 mouse macrophage cells using a cell viability assay. […] Using the plaque reduction assay, the inhibitory effects of 54 (0.5–50 µM) were examined against MNV plaque formation in cell culture. […] Compound solubility and its cell-membrane permeability properties could be further improved with structure-activity relationship enhancement of the 54 scaffold to facilitate cellular uptake, and therefore to increase antiviral efficacy. Work on this aspect is ongoing, and it will be reported in due course.
MNV-1 (CW1) culture assays were performed as previously described. Replication was examined using plaque assays[58],[64],[65]. Cytotoxicity was examined using a CellTitre Blue (Promega, Madison, WI, USA) viability assay as described previously.

MNV RdRp = biological target: T1, MNV RdRp (Norovirus, UniProt Q80J95); assay: Fluorescent RdRp activity assay, MNV RdRp; format: biochemical, murine norovirus; settings: fixed concentration of 100 µM
T1 construct: made in house
Source text: The antiviral activity of the four compounds (11, 13, 42a and 54) were examined for inhibition of RNA polymerases from other viruses spanning three genera of the Caliciviridae family, including Norovirus (human norovirus and MNV), Lagovirus (rabbit haemorrhagic disease virus [RHDV]) and Sapovirus (human sapovirus). […] The protein sequence of the examined calicivirus polymerases has an identity range between 30.2–61.4%, and therefore the broad-spectrum activity of these compounds could be attributed to a common, highly-conserved binding pocket across the RdRps, as has been previously reported with broad-spectrum activity of other site-B binding NNIs[16]. Moreover, the ability of each compound to inhibit the different RdRps in a similar range could be further confirmation of targeting a well-conserved binding site of the Caliciviridae family.
Recombinant calicivirus RdRps (GenBank accession numbers) norovirus GII.Pe/GII.4 Sydney 2012 (KT239579), MNV GV CW1 (DQ285629), RHDV Czech V351 (KF594473.1), and SaV GI.1 Mc114 (AY237422) were expressed and purified as described previously[60],[61]. […]
Fluorescent RdRp activity assays were carried out as previously described[14],[62]. Briefly, RdRp activity was quantified by monitoring the formation of double-stranded RNA (dsRNA) from a single stranded homopolymeric template, poly(C) (Sigma Aldrich, St Louis, MO, USA), using the fluorescent dye PicoGreen (Life Technologies, Carlsbad, CA, USA). […] RdRps were incubated for 10 mins at 30 °C in the presence of the test compounds or the compound vehicle DMSO (0.5% vol/vol) before addition into the reaction mixture, which was then allowed to run 15 min at 30 °C then terminated with 10 mM EDTA, followed by PicoGreen staining and dsRNA quantitation. […] In cases where fluorescent enhancement was recorded for a compound instead of inhibition, a secondary gel-based polymerase activity assay was used as a counter-screen as described below, to exclude the possibility of RdRp activity enhancement (Supplementary Fig. S1). […] Antagonism was calculated using Compusyn software V1.0[59]. […]

[5] = parameters: method as in PMID 24316032, PMID 24616282; settings: cited from earlier work
[6] = 10 µM, initial screen of purchased compounds
[7] = 100 µM, initial screen of purchased compounds
[8] = read-out: inhibition of human norovirus RdRp activity, 10 µM, initial screen of purchased compounds
[9] = initial screen of purchased compounds
[10] = read-out: inhibition of norovirus Sydney 2012 RdRp activity, 10 µM, secondary screen of newly synthesised compounds

## Nc1nc2c(ncn2[C@@H]2O[C@H](COP(=O)(O)OP(=O)(O)OP(=O)(O)O)C[C@H]2O)c(=O)[nH]1 [3′dGTP, 3′-deoxyguanosine-5′-triphosphate]
Norovirus RdRp [1]
  inhibition of transcription (gel-shift, positive control): complete inhibition

## CCC(O)CC(C(=O)NNc1ccccc1)C(=O)NNc1ccccc1 (stereo not drawn) [AE-562/12222591]
[2]; [6]
  inhibition of human norovirus RdRp activity: over 25%
[2]; [7]
  inhibition of human norovirus RdRp activity: over 25%
[3]
  solubility (observation): precipitated heavily in 100% DMSO

## O=C(O)c1ccc2nc(-c3cccc(-c4nc5ccc(C(=O)O)cc5[nH]4)c3)[nH]c2c1 [AJ-077/33270018]
[2]; [7]
  inhibition of human norovirus RdRp activity: apparent RdRp enhancement
Norovirus RdRp [4]
  RdRp activity enhancement in gel-based counter-screen: not seen in the gel-based assay
[3]
  solubility (observation): insolubility

## COc1cccc(NC(=O)Cn2nc(C(F)(F)F)cc2C2CC2)c1 [AK-968/41925073]
[2]; [6]
  inhibition of human norovirus RdRp activity: over 25%
[2]; [7]
  inhibition of human norovirus RdRp activity: over 25%
[3]
  solubility (observation): precipitated heavily in 100% DMSO

## O=C(Nc1ccc(O)c(-c2nc3ccccc3o2)c1)c1cccnc1 [AP-970/12851847]
[2]; [7]
  inhibition of human norovirus RdRp activity: apparent RdRp enhancement
Norovirus RdRp [4]
  RdRp activity enhancement in gel-based counter-screen: not seen in the gel-based assay
[3]
  solubility (observation): insolubility

## C[C@@]1(O)[C@H](O)[C@@H](CO)O[C@H]1n1ccc(N)nc1=O [Compound 2CMC, 2′-C-methylcytidine]
Human norovirus RdRp; read-out: IC50 against human norovirus RdRp
  IC50: 2.5 µM
Human norovirus replicon
  EC50: 8.2 µM
Human norovirus
  EC50: 0.3 µM

## Cc1ccc(N2NC(=O)C(=Cc3ccc(-c4ccc(S(=O)(=O)Nc5nccs5)cc4)o3)C2=O)cc1 [Compound 11]
[2]
  IC50: 5 µM
[2]; [8]
  inhibition at 10 µM: > 25%
[2]; [9]
  inhibition at 100 µM: > 50%
Norovirus RdRp [4]
  inhibition of primed elongation activity (gel-shift): complete inhibition
MNV; 10 µM, read-out: inhibition of MNV plaque formation
  inhibition at 10 µM: 37.1%
MNV; 100 µM
  cytotoxicity seen in plaque assay: cytotoxic

## Cc1cc(C(=O)O)ccc1-c1ccc(/C=C2\SC(=O)N(CC(=O)N3CCOCC3)C2=O)o1 [Compound 13]
[2]
  IC50: 15 µM
[2]; [8]
  inhibition at 10 µM: > 25%
[2]; [9]
  inhibition at 100 µM: > 50%
[2]; [10]
  inhibition at 10 µM: 25%
Norovirus RdRp [4]
  inhibition of primed elongation activity (gel-shift): complete inhibition
MNV; 100 µM, read-out: inhibition of MNV plaque formation
  inhibition at 100 µM: 21%

## O=C(CN1C(=O)S/C(=C\c2ccc(-c3ccccc3)o2)C1=O)Nc1ccccc1 [Compound 42a]
[2]
  IC50: 27.4 µM
Norovirus RdRp [4]
  inhibition of primed elongation activity (gel-shift): near complete abolishment of norovirus RdRp activity
MNV RdRp
  inhibition at 100 µM: 44.4%
MNV RdRp; 100 µM
  inhibition of MNV RdRp activity: < 50%

## COC(=O)c1ccc(-c2ccc(/C=C3\SC(=O)N(CC(=O)Nc4ccccc4)C3=O)o2)cc1 [Compound 42b]
[2]; [10]
  inhibition at 10 µM: > 50%
Norovirus RdRp [4]
  inhibition of primed elongation activity (gel-shift): near complete abolishment of norovirus RdRp activity
[3]
  solubility (observation): significant solubility issues

## CC1=N/C(=N/Nc2cc(S(=O)(=O)O)c3cc([N+](=O)[O-])cc(S(=O)(=O)O)c3c2)C(COP(=O)(O)O)=C(C=O)C1=O [PPNDS, pyridoxal-5′-phosphate-6-(2′-naphthylazo-6′-nitro-4′,8′-disulfonate) tetrasodium salt]
Human norovirus RdRp; in vitro, read-out: IC50 against human norovirus RdRp activity
  IC50: 0.45 µM
[5]
  cell membrane permeability: poor cell membrane permeability

## Cc1ccc(C(=O)Nc2ccc(S(=O)(=O)O)c3cc(S(=O)(=O)O)cc(S(=O)(=O)O)c23)cc1NC(=O)c1cccc(NC(=O)Nc2cccc(C(=O)Nc3cc(C(=O)Nc4ccc(S(=O)(=O)O)c5cc(S(=O)(=O)O)cc(S(=O)(=O)O)c45)ccc3C)c2)c1 [suramin]
Human norovirus RdRp; enzymatic assays, read-out: IC50 against human norovirus RdRp
  IC50: 0.027 µM
[5]
  cell membrane permeability: poor cell membrane permeability
